From US8476255B2, “Histone deacetylase inhibitors” (Orchid Chemicals & Pharmaceuticals Limited, priority 2007, dated 2013)
Like-named read-outs stand apart in the source and are kept apart here.

Legend:
HCT 116 (colon) cells = test: Anti-cancer screen (MTT), HCT 116; type: cell-based; details: Homo sapiens; for GI50: read-out: Cell growth inhibition HCT116 (Colon) GI50; for CC50: read-out: Cell growth inhibition HCT116 (Colon) LC50; for IC (TGI): read-out: Cell growth inhibition HCT116 (Colon) TGI
In short: (§1)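 A570 read-out after a 3 h MTT step and DMSO solubilisation; a separate plate measured at drug addition served as T0. Treatment lasted 48 h at five concentrations (0.01–100 μM) after 24 h attachment in DMEM/10% FBS; SAHA as standard.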

U251 (glioma) cells = test: Anti-cancer screen (MTT), U251; type: cell-based; details: Homo sapiens; for GI50: read-out: Cell growth inhibition U251 (Glioma) GI50; for LC50 (concentration giving 50% net cell kill relative to the time-zero cell count): read-out: Cell growth inhibition U251 (Glioma) LC50; for IC (TGI): read-out: Cell growth inhibition U251 (Glioma) TGI
In short: as §1

[1] = system: HDAC (Mouse Liver Extract); test: HDAC inhibition assay using Boc-Lys(Ac)-AMC substrate; type: biochemical; details: mouse liver enzyme
In short: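 Boc-Lys(Ac)-AMC substrate incubated with mouse liver extract as HDAC source, 5 min preincubation then 30 min at 37° C. Trypsin stop solution added (37° C., 15-30 min) to release AMC, read at ex 360/em 460 nm; buffer-only and substrate-only wells as blanks.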

[2] = system: NCIH460, HCT116 and U251 cells; test: Anti-cancer screen, mean GI50 over cell lines; type: cell-based; details: read-out: Cell growth inhibition Mean GI50
In short: as §1

NCIH460 (lung) cells = test: Anti-cancer screen (MTT), NCIH460; type: cell-based; details: Homo sapiens; for GI50: read-out: Cell growth inhibition NCIH460 (Lung) GI50; for LC50: read-out: Cell growth inhibition NCIH460 (Lung) LC50; for IC (TGI): read-out: Cell growth inhibition NCIH460 (Lung) TGI
In short: as §1

[3] = NCI-H460, NCIH460, 48 hours, MTT

SMILES | GI50 (HCT 116 (colon) cells; HCT-116, HCT116, 48 hours, MTT) | CC50 (HCT 116 (colon) cells; HCT-116, HCT116, 48 hours, MTT) | IC (TGI) (HCT 116 (colon) cells; HCT-116, HCT116, 48 hours, MTT) | GI50 (U251 (glioma) cells; U-251, U251, 48 hours, MTT) | LC50 (concentration giving 50% net cell kill relative to the time-zero cell count) (U251 (glioma) cells; U-251, U251, 48 hours, MTT) | IC (TGI) (U251 (glioma) cells; U-251, U251, 48 hours, MTT) | HDAC inhibition % (1 μM) [1] | HDAC inhibition % (10 μM) [1] | GI50 ([2]; mean over cell lines) | GI50 (NCIH460 (lung) cells; [3]) | LC50 (NCIH460 (lung) cells; [3]) | IC (TGI) (NCIH460 (lung) cells; [3]) | IC50 [1] | also measured
COc1ccc(/C=C(/C(=O)NCc2ccc(C(=O)NO)cc2)c2ccc(C)cc2)cc1OC [Compound 62, 4-((2-(4-Methylphenyl)-3-(3,4-dimethoxyphenyl)acrylamido)methyl)-N-hydroxybenzamide] | 90 µM | > 100 µM | > 100 µM | > 100 µM | > 100 µM | > 100 µM | 83.2% | 100.0% | 90 µM | > 100 µM | > 100 µM | > 100 µM |  | 
COc1ccc(/C=C(/C(=O)NCc2ccc(/C=C/C(=O)NO)cc2)c2ccc(F)cc2)cc1OC [Compound 77, (1E)-N-(4-(3-(Hydroxyamino)-3-oxoprop-1-enyl)benzyl)-2-(4-fluorophenyl)-3-(3,4-dimethoxyphenyl)acrylamide] | 0.5 µM | 50 µM | 6 µM | 2.6 µM | > 100 µM | 19 µM | 90.6% | 98.5% | 1.7 µM | 2 µM | > 100 µM | 70 µM | 0.05 µM | 
COc1ccc(/C=C(/C(=O)NCc2ccc(/C=C/C(=O)NO)cc2)c2ccccc2F)cc1OC [Compound 78, (1E)-N-(4-(3-(Hydroxyamino)-3-oxoprop-1-enyl)benzyl)-2-(2-fluorophenyl)-3-(3,4-dimethoxyphenyl)acrylamide] | 4 µM | > 100 µM | 30 µM | 1 µM | > 100 µM | 8 µM | 87.6% | 91.3% | 2.3 µM | 2 µM | > 100 µM | > 100 µM |  | 
CSc1ccc(/C=C(/C(=O)NCCCCCCC(=O)NO)c2ccc(F)cc2)cc1 [Compound 84, 7-(2-(4-Fluorophenyl)-3-(4-methylthiophenyl)acrylamido)-N-hydroxy heptanamide] | 1.2 µM | > 100 µM | 21 µM | 4.2 µM | 95 µM | 21 µM | 90.0% | 94.3% | 2.6 µM | 2.3 µM | 70 µM | 21 µM | 0.06 µM | 
O=C(CCCCCCNC(=O)/C(=C\c1ccccc1)c1ccccc1)NO [Compound 85, (2Z)-7-(2,3-Diphenylacrylamido)-N-hydroxy heptanamide] | 3.1 µM | > 100 µM | 23 µM | 4.8 µM | 80 µM | 27 µM | 79.3% | 95.8% | 3.7 µM | 3.3 µM | 75 µM | 25 µM | 0.38 µM | 
CS(=O)(=O)c1ccc(/C=C(/C(=O)NCCCCCC(=O)NO)c2ccc(F)cc2)cc1 [Compound 87, 6-(2-(4-Fluorophenyl)-3-(4-methylsulfonylphenyl)acrylamido)-N-hydroxy hexanamide] | 44 µM | > 100 µM | 88 µM | 20 µM | > 100 µM | > 100 µM | 43.6% | 81.6% | > 100 µM | > 100 µM | > 100 µM | > 100 µM |  | 
O=C(CCCCCNC(=O)/C(=C/c1ccccc1)c1ccccc1)NO [Compound 88, 6-(2,3-Diphenylacrylamido)-N-hydroxy hexanamide] | 5 µM | > 100 µM | 22.5 µM | 7.8 µM | 78 µM | 37.5 µM | 81.5% | 95.4% | 11.3 µM | 21 µM | 91 µM | 57.5 µM |  | 
O=C(CCCCCNC(=O)/C(=C/c1c(F)cc(F)cc1F)c1ccc(F)cc1)NO [Compound 89, 6-(2-(4-Fluorophenyl)-3-(2,4,6-trifluorophenyl)acrylamido)-N-hydroxy hexanamide] | 4 µM | 83 µM | 10 µM | 4 µM | 81 µM | 6.7 µM | 64.9% | 97.6% | 3.7 µM | 3 µM | 45 µM | 13 µM | 0.03 µM | 
CSc1ccc(/C=C(/C(=O)NCCCCCC(=O)NO)c2ccsc2)cc1 [Compound 90, 6-(2-(Thiophen-3-yl)-3-(4-methylthiophenyl)acrylamido)-N-hydroxy hexanamide] | 3 µM | > 100 µM | 6 µM | 0.8 µM | 82 µM | 6.1 µM | 78.2% | 98.9% | 1.3 µM | 0.1 µM | 30 µM | 5 µM | 0.04 µM | 
COc1cc(/C=C(/C(=O)NCCCCCC(=O)NO)c2ccc(F)cc2)ccc1F [Compound 91, 6-(2-(4-Fluorophenyl)-3-(4-fluoro-3-methoxyphenyl)acrylamido)-N-hydroxy hexanamide] | 19 µM | > 100 µM | > 100 µM | 2 µM | 92 µM | 30 µM | 80.8% | 97.3% | 22.3 µM | 46 µM | > 100 µM | > 100 µM |  | 
CSc1ccc(/C=C(/C(=O)NCCCCCC(=O)NO)c2ccccc2Cl)cc1 [Compound 95, 6-(2-(2-Chlorophenyl)-3-(4-methylthiophenyl)acrylamido)-N-hydroxy hexanamide] | 3 µM | 66 µM | 14 µM | 0.1 µM | 64 µM | 11 µM | 60.8% | 92.0% | 3 µM | 6 µM | 72 µM | 40 µM | 0.01 µM | 
CSc1ccc(/C=C(/C(=O)NCCCCCC(=O)NO)c2ccc(C)cc2)cc1 [Compound 96, 6-(2-(4-Methylphenyl)-3-(4-methylthiophenyl)acrylamido)-N-hydroxy hexanamide] |  |  |  |  |  |  | 84.1% | 98.5% |  |  |  |  | 0.01 µM | GI50 (HCT 116 (colon) cells; HCT-116, 48 h): 6 µM; CC50 (HCT 116 (colon) cells; HCT-116, 48 h): > 100 µM; IC (TGI) (HCT 116 (colon) cells; HCT-116, 48 h): 27 µM; GI50 (U251 (glioma) cells; U-251, 48 h): 8 µM; LC50 (concentration giving 50% net cell kill relative to the time-zero cell count) (U251 (glioma) cells; U-251, 48 h): 60 µM; IC (TGI) (U251 (glioma) cells; U-251, 48 h): 22 µM; GI50 [2]: 7.3 µM; GI50 (NCIH460 (lung) cells; NCI-H460, 48 h): 8 µM; LC50 (NCIH460 (lung) cells; NCI-H460, 48 h): 60 µM; IC (TGI) (NCIH460 (lung) cells; NCI-H460, 48 h): 21 µM
CS(=O)(=O)c1ccc(/C=C(/C(=O)NCCCCCC(=O)Nc2ccccc2N)c2ccc(F)cc2)cc1 [Compound 97, N-(2-Aminophenyl)-6-(2-(4-fluorophenyl)-3-(4-methylsulfonyllphenyl)acrylamido)hexanamide] | 6.8 µM | > 100 µM | 85 µM | 6.5 µM | 87 µM | 44 µM | 10.2% | 34.2% | 23.1 µM | 56 µM | > 100 µM | > 100 µM |  | 
